Consider two molecules from patent publication US20070043018A1, “2"-Hydroxynicotianamine, process for producing the same and angiotensin converting enzyme inhibitor, hypotensive drug and health food” (JAPAN SCIENCE AND TECHNOLOGY AGENCY, priority 2003, published 2007).

Series [1] has as its target T1, ACE from the lung of rabbit (Oryctolagus cuniculus, UniProt P12822).
T1 construct: ACE used was a freeze dry product of ACE from the lung of rabbit (manufactured by Sigma); purchased Sigma; host or cells: rabbit lung tissue
T1 sequence (P12822 34-1310): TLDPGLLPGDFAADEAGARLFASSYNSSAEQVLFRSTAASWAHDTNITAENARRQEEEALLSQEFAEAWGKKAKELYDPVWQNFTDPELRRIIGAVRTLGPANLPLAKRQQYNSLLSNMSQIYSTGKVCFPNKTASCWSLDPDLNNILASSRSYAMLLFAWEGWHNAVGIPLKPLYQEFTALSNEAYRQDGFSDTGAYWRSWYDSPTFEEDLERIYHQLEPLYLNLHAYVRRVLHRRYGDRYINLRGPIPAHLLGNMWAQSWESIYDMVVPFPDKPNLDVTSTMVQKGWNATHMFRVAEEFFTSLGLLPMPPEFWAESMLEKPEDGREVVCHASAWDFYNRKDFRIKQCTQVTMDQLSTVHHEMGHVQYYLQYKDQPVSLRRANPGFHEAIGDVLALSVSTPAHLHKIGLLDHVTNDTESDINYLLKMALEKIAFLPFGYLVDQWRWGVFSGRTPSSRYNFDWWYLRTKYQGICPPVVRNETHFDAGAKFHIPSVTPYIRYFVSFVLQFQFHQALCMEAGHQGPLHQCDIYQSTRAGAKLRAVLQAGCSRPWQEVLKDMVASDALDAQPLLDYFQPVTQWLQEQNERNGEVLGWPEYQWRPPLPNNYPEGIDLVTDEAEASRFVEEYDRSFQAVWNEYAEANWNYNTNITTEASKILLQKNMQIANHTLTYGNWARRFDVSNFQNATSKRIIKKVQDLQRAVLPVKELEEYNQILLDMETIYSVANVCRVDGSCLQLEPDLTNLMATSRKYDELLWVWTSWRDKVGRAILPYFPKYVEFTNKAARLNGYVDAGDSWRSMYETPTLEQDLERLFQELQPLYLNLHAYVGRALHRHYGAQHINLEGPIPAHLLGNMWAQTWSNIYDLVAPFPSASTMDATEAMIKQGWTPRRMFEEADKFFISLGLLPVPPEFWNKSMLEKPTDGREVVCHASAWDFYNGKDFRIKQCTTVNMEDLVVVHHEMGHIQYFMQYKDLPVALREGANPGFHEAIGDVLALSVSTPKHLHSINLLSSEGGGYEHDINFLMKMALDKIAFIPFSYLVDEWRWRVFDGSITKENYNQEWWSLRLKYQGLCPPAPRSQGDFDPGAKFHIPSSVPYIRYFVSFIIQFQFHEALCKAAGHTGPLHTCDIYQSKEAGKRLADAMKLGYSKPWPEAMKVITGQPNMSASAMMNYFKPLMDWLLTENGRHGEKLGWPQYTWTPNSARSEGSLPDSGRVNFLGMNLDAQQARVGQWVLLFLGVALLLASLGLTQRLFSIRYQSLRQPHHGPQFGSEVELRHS
The experiment in a line: Measurement of ACE inhibitory activity by Cushman and Cheung method. Particulars: substrate hippuryl-L-histidyl-L-leucine, pH 8.3, 37° C. for 30 minutes, no pre-incubation; determined by extrapolation on the graph; read-out: concentration that indicates 50% inhibition (IC50) of ACE. The class given is biochemical. From the text: The separation and purification process comprises the steps of: injecting the extract solution obtained in the extraction process into a column filled with the cation exchange resin or anion exchange resin by a known method; washing the column with water and eluting the column with the aqueous electrolyte solution as the eluant; and measuring the ACE inhibitory activity of the fractions obtained to collect the fractions having the ACE inhibitory activity. Known methods such as the method of Cushman and Cheung may be used for measuring the ACE inhibitory activity.
<Measurement of ACE Inhibitory Activity>
The ACE inhibitory activity was measured as follows by Cushman and Cheung method. […]
After mixing the compositions of the reaction solution (i), (ii), (iii), and (iv), enzyme solution (v) was added to the mixed solution without pre-incubation, and the solution was allowed to react (incubate) at 37° C. for 30 minutes. […] The extract solution was evaporated to dryness using a centrifugal evaporator, and the residue was dissolved in 1 ml of water to measure the concentration of the extract by absorbance at 228 nm using a spectrophotometer. The measured absorbance was defined as ODs (ODs1, ODs2 and ODs3) for the measurements using samples solutions 1, 2 and 3, respectively. […]

A short description of series [2]: Solubility (other chemical and physical properties). The class given is physicochemical. Particulars: in water, dilute acid and dilute alkali. How it is done:
While the novel substance of the invention is positive to the ninhydrin reaction, the reaction is suppressed by Cu^2+ ions. […] Almost no usual amino acids are detected when amino acids are detected with an automatic amino acid analyzer after decomposing the novel substance of the invention with 6N HCl at 110° C. for 16 hours, and the decomposition product has a complicated composition. The novel substance of the invention has a melting point of 275 to 280° C. and a specific rotation [α]D^23.6 of −40° (c=0.4 g/100 ml; solvent=water) and [α]D^23.6 of −34.5° (c=0.2 g/100 ml/; solvent=1N HCl).

Take `N[C@H](C(=O)O)C(O)CN[C@@H](CCN1CC[C@H]1C(=O)O)C(=O)O` (stereo partly drawn) [2″-hydroxynicotianamine]: the IC50 in series [1] was 0.08 µM. In series [2], the solubility result is “soluble in water, dilute acid and dilute alkali”.
With `N[C@@H](CCN[C@@H](CCN1CC[C@H]1C(=O)O)C(=O)O)C(=O)O` [nicotianamine, Nicotianamine], the IC50 in series [1] is 0.085 µM.
